The source of these data is the Kinase Knowledgebase extract (Sharma et al. 2016).

Values joined by “and” are separate entries in the source; they are usually repeats but may differ in a detail not shown here. Equal entries are not always repeated.

One experiment deals with MAPK14 (human) (UniProt Q16539). Description: TNF-alpha Inhibition. As to conditions: thp1.
A further experiment concerns MAPK14 (rat). Kind of experiment: Pharmacokinetic Studies.
The next experiment has as its system MAPK14 (Lewis rat). Description: p38 Inhibition (SCW-Induced Arthritis Model).
In another experiment the target is MAPK14 (mouse). Description: p38 Inhibition.
In a further experiment the test system is MAPK14 (Balb/c mice). Kind of experiment: TNF-alpha Inhibition (in vivo).

MAPK14 (human), sequence (Q16539 whole entry, looked up): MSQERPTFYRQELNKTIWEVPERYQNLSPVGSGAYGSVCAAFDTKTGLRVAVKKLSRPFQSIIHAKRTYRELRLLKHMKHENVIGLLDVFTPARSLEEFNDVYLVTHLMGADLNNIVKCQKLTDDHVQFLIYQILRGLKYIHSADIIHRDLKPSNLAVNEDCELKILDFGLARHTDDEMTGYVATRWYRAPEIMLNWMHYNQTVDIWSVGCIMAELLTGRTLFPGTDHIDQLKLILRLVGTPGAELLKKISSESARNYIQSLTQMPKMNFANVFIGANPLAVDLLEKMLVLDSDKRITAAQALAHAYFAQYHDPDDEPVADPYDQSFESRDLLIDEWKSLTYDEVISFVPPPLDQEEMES

As usually defined, the IC50 is the concentration that inhibits the measured activity by half. A lower IC50 goes with higher potency. Compound `C=CCNc1nccc(-c2[nH]c([C@H]3OC[C@@](C)(C(=O)NCCOC)CO3)nc2-c2ccc(F)cc2)n1` gave an IC50 against MAPK14 (human) of 73 nM. Further, the AUC in the experiment on MAPK14 (rat) came out at 169 ng·h/mL.

For the compound `CCCNC(=O)[C@]1(C)CO[C@@H](c2nc(-c3ccc(F)cc3)c(-c3ccnc(NCc4ccco4)n3)[nH]2)OC1`, the IC50 against MAPK14 (human) was 3 nM. The compound further returned an AUC in the experiment with MAPK14 (rat) of 257 ng·h/mL.

For `C[C@@H]1C[C@H]2[C@@H]3CCC4=CC(=O)C=C[C@]4(C)[C@@]3(F)[C@@H](O)C[C@]2(C)[C@@]1(O)C(=O)CO`, in the experiment on MAPK14 (Lewis rat), the score came to 22.5.

As to `CN(C)C(=O)[C@]1(C)CO[C@@H](c2nc(-c3ccc(F)cc3)c(-c3ccnc(NCc4ccccn4)n3)[nH]2)OC1`, the IC50 against MAPK14 (human) is 9 nM. The compound further had an AUC in the experiment on MAPK14 (rat) of 529 ng·h/mL.

Consider `CC(C)NC(=O)[C@]1(C)CO[C@@H](c2nc(-c3ccc(F)cc3)c(-c3ccnc(NCC4CC4)n3)[nH]2)OC1`, for which the AUC in the experiment with MAPK14 (rat) was found to be 412 ng·h/mL.

For `C[C@]1(C(=O)N2CCOCC2)CO[C@H](c2nc(-c3ccc(F)cc3)c(-c3ccncc3)[nH]2)OC1`, the IC50 on MAPK14 (mouse) stood at 110000 nM; against MAPK14 (human), 60 nM. Besides, the ED50 result in the experiment with MAPK14 (Balb/c mice) was “Between 3 to 10 mg kg-1”. The AUC with MAPK14 (rat) was 247 ng·h/mL and 628 ng·h/mL. The Cp in the experiment on MAPK14 (rat) was determined as 277 ng/mL.

Compound `C[C@]1(C(=O)NC2CC2)CO[C@H](c2nc(-c3ccc(F)cc3)c(-c3ccnc(NCC4CC4)n3)[nH]2)OC1` displayed an AUC in the experiment on MAPK14 (rat) of 288 ng·h/mL.

`COCCNc1nccc(-c2[nH]c([C@H]3OC[C@@](C)(C(=O)NCC4CC4)CO3)nc2-c2ccc(F)cc2)n1` yielded an AUC in the experiment on MAPK14 (rat) of 121 ng·h/mL.

The compound `CN(C)C(=O)[C@]1(C)CO[C@@H](c2nc(-c3ccc(F)cc3)c(-c3ccnc(NCC4CC4)n3)[nH]2)OC1` displayed an IC50 at MAPK14 (human) of 0.2 nM. Moreover, the AUC in the experiment with MAPK14 (rat) turned out to be 276 ng·h/mL.

On MAPK14 (human), `COCCCNc1nccc(-c2[nH]c([C@H]3OC[C@@](C)(C(=O)NCCOC)CO3)nc2-c2ccc(F)cc2)n1` returned a half-inhibitory concentration (IC50) of 71 nM. In the experiment with MAPK14 (rat), this compound returned an AUC of 138 ng·h/mL.

Consider `CCCNC(=O)[C@]1(C)CO[C@@H](c2nc(-c3ccc(F)cc3)c(-c3ccnc(NCCCOC)n3)[nH]2)OC1`, for which, on MAPK14 (human), the concentration for half-maximal inhibition (IC50) stood at 3.5 nM. The AUC in the experiment on MAPK14 (rat) was 738 ng·h/mL.

At MAPK14 (human), `CN1CCN(C(=O)[C@]2(C)CO[C@@H](c3nc(-c4ccc(F)cc4)c(-c4ccnc(NCC5CC5)n4)[nH]3)OC2)CC1` gave an IC50 of 2 nM. The compound also showed an AUC in the experiment on MAPK14 (rat) of 541 ng·h/mL. The same compound came in with a bioavailability with MAPK14 (rat) (dose or concentration not given here) of 20%. The score with MAPK14 (Lewis rat) is 40 and 34 and 25.
